Test results from WO2020158863A1, “Combined drug of anthracycline compound-containing micelle preparation with immunostimulant” (priority 2019, dated 2020).
Structures can show the parent of a compound that is named as a salt.

What was measured:
[1] = system: GL261 cells; assay: ICD marker expression on cell surface, flow cytometry, GL261 cells; format: cell-based, mouse; conditions: 24 h; negative control; Fig. 8G
[2] = system: KPC cells; assay: ICD marker expression, flow cytometry, KPC cells (Experimental Example 13-2); format: cell-based, mouse; conditions: 24 h, Fig. 21; for HSP70 level / HSP90 level / calreticulin level: 1 μg/mL or 5 μg/mL
[3] = system: mouse pancreatic cancer cells KPC; assay: IC50 for mouse pancreatic cancer cells KPC (Experimental Example 13-1); format: cell-based; conditions: Pancreatic cancer cell
[4] = system: fibrosarcoma cell carcinoma line (MCA205, Sarcoma180, NIH3T3, HT1080); assay: IC50 against fibrosarcoma cell lines (Experimental Example 12-1); format: cell-based
[5] = system: PD-L1; assay: PD-L1 expression in CT2A tumors, flow cytometry (Experimental Example 10); format: in vivo, mouse; conditions: 8 days after single tail vein injection, 6 mg/kg Epi equivalent; Fig. 16
[6] = system: GL261-luc tumor; assay: Orthotopic GL261-luc tumor in wild type mice (Experimental Example 7-1); format: in vivo, mouse; conditions: wild type C57/BL6; 5 mg/kg Epi equivalent
[7] = system: GL261-luc tumor; assay: Orthotopic GL261-luc tumor in nude mice (Experimental Example 7-1); format: in vivo, mouse; conditions: nude BALB/c; 5 mg/kg Epi equivalent
[8] = system: CT2A cells; assay: Cytotoxic activity (IC50), CT2A cells (Experimental Example 6); format: cell-based, mouse; conditions: PTEN-negative; 48 h; Fig. 8F
[9] = system: various cancer cells (MCA205, AB12, GL261, CT2A, LL2, C26); assay: IC50 against various cancer cells (Experimental Example 11-1); format: cell-based
[10] = system: GL261 cells; assay: Cytotoxic activity (IC50), GL261 cells (Experimental Example 6)
[11] = system: mouse glioblastoma (GBM) cells GL261; assay: in vitro cytotoxicity assay (Experimental Example 3); format: cell-based; conditions: 3 h exposure, 48 h incubation; Fig. 3

[NH2][Pt]([NH2])([Cl])[Cl] [CDDP, Cisplatin]
ICD marker level [1]: did not significantly increase the marker

COc1cccc2c1C(=O)c1c(O)c3c(c(O)c1C2=O)C[C@@](O)(C(=O)CO)C[C@@H]3O[C@H]1C[C@H](N)[C@H](O)[C@H](C)O1 [DOX, doxorubicin hydrochloride]
HSP70 level [2]: significantly increased | HSP90 level [2]: significantly increased | calreticulin level [2]: significantly increased | IC50 [3]: ≤ 2 µg/mL

COc1cccc2c1C(=O)c1c(O)c3c(c(O)c1C2=O)C[C@@](O)(C(=O)CO)C[C@@H]3O[C@H]1C[C@H](N)[C@@H](O)[C@H](C)O1 [Epi, Epirubicin hydrochloride]
IC50 [4]: ≤ 2 µg/mL | expression level of PD-L1 in tumor cells [5]: no such reduction in expression levels occurred | HSP70 level [2]: significantly increased | HSP90 level [2]: significantly increased | calreticulin level [2]: significantly increased | tumor growth rate / tumor-derived luminescence [6]: the tumor growth rate was not suppressed | tumor growth rate [7]: the tumor growth rate was not suppressed | cytotoxic activity [8]: high activity against PTEN-negative CT2A cells, comparable to the activity against GL261 cells | IC50 [9]: ≤ 1 µg/mL | IC50 ([10]; Mus musculus, GL261, 48 h): < 1 µg/mL | cytotoxic activity ([10]; PTEN-positive, 48 h, Fig. 8E): high cytotoxic activity | in vitro cytotoxicity [11]: high in vitro cytotoxicity

CCc1c2c(nc3ccc(OC(=O)N4CCC(N5CCCCC5)CC4)cc13)-c1cc3c(c(=O)n1C2)COC(=O)[C@]3(O)CC [irinotecan]
ICD marker level ([2]; any concentration): did not significantly increase the marker at any concentration
